# Test results: patent publication US20080070868A1, “Novel Thiazole Inhibitors of Fructose 1,6-bisphosphatase” (Metabasis Therapeutics, Inc., priority 2004, published 2008)
# Molecular target: T1, human NAT1 (Homo sapiens, UniProt P18440)
# T1 construct: purchased BD Gentest (Bedford, Mass.); host or cells: insect cells
# T1 sequence (P18440 1-290): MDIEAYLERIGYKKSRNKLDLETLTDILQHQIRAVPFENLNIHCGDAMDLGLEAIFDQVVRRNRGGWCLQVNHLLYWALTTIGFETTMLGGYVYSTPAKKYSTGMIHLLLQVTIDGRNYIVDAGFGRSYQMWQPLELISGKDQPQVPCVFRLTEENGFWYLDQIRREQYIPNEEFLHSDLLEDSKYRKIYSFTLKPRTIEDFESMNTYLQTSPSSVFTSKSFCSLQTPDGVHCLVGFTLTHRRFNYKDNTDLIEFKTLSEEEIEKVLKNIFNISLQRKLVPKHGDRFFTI
# Assay: N-acetylation by recombinant human NAT1
# Type: in vitro ADME
# Conditions: compound 100 μM, 37° C., 120 min, N-acyl product by HPLC
# Procedure: Insect cell-expressed human NAT1 and NAT2 and control insect cytosol were obtained from BD Gentest (Bedford, Mass.). Compounds (100 μM) were incubated in 0.25 mL of NAT reaction cocktail consisting of 25 mM potassium phosphate pH 7.4 (at 25° C.), 1 mM EDTA, 1 mM DTT, 0.5 mM acetyl CoA, 5 mM acetyl-DL-carnitine, 20 u/mL acetyltransferase and either NAT1, NAT2 or control insect cytosol (0.1 mg/mL). Reactions were performed in an Eppendorf Thermomixer (37° C., 120 min.). At 0 and 120 min., 100 μl of each reaction was removed and added to a clean 1.7 mL tube containing 150 μl of 100% methanol. The tubes were vortexed and centrifuged at 14,000 rpm for 10 min. in an Eppendorf microcentrifuge (room temperature, 5 min., 14,000 rpm). The supernatants were analyzed by HPLC (Agilent 1100 series) using a Phenosphere C18 column (5 micron, 150×4.6 mm). The column was equilibrated with 20 mM potassium phosphate pH 4.5 or pH 6.2 (at 25° C.) and eluted with a linear gradient to 80% acetonitrile. The percent conversion of the compounds was calculated from the following equation: area of N-acyl product divided by (area of compound+area of N-acyl product), multiplied by 100.
row,% Conversion NAT1,SMILES
1,22.3%,"Nc1nc(-c2ccc(P(=O)(O)O)o2)c(CC2CCCC2)s1 [Compound 3.2, reference compound]"
2,14.0%,"CC(C)c1sc(N)nc1-c1ccc(P(=O)(O)O)o1 [Compound 3.4, reference compound]"
3,4.6%,"CCC(C)(C)Cc1sc(N)nc1-c1ccc(P(=O)(O)O)o1 [Compound 3.3, reference compound]"
4,14.2%,"CCC(C)Cc1sc(N)nc1-c1ccc(P(=O)(O)O)o1 (centres unmarked) [Compound 3.5, reference compound]"

# Molecular target: T2, human liver FBPase (Homo sapiens, UniProt P09467)
# T2 construct: made in house; host or cells: E. coli BL21
# T2 sequence (P09467 2-338 limits assumed): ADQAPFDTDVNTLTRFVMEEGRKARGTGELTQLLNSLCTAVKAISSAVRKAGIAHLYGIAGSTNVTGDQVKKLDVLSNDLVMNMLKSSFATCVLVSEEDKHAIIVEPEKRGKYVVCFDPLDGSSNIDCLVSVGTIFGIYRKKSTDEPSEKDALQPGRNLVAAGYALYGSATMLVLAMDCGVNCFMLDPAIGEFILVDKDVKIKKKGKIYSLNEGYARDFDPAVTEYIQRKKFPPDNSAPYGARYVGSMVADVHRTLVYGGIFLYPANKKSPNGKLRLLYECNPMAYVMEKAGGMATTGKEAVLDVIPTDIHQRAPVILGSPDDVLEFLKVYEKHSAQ
# Assay: Inhibition of human liver FBPase
# Type: biochemical
# Conditions: N-acetyl-1.1 relative to 1.1
# Procedure: E. coli strain BL21 transformed with a human liver FBPase-encoding plasmid was obtained from Dr. M. R. El-Maghrabi at the State University of New York at Stony Brook. […] Enzymatic activity was measured spectrophotometrically in reactions that coupled the formation of product (fructose 6-phosphate) to the reduction of dimethylthiazoldiphenyltetrazolium bromide (MTT) via NADP^+ and phenazine methosulfate (PMS), using phosphoglucose isomerase and glucose 6-phosphate dehydrogenase as the coupling enzymes. Reaction mixtures (200 μl) were made up in 96-well microtitre plates, and consisted of 50 mM Tris-HCl, pH 7.4, 100 mM KCl, 5 mM EGTA, 2 mM MgCl2, 0.2 mM NADP, 1 mg/ml BSA, 1 mM MTT, 0.6 mM PMS, 1 unit/ml phosphoglucose isomerase, 2 units/ml glucose 6-phosphate dehydrogenase, and 0.150 mM substrate (fructose 1,6-bisphosphate). Inhibitor concentrations were varied from 0.01 μM to 10 μM. Reactions were started by the addition of 0.002 units of pure hlFBPase, and were monitored for 7 min. at 590 nm in a Molecular Devices Plate Reader (37° C.).
row,rightward shift in potency in the FBPase assay on N-acetylation,SMILES
1,74.5 fold,"CC(=O)Nc1nc(-c2ccc(P(=O)(O)O)o2)c(C(=O)C(C)(C)C)s1 [N-acetyl-1.1, reference compound]"

# Same assay, conditions: purified recombinant human liver FBPase, 0.150 mM fructose 1,6-bisphosphate, 37° C.; read-out: IC50 (hlFBPase)
row,SMILES,IC50
1,"Nc1nc(-c2ccc(P(=O)(O)O)o2)c(C(=O)c2ccc(N3CCOCC3)c(Cl)c2)s1 [Compound 1.25, [5-(2-amino-5-(3-chloro-4-(1-morpholinyl)benzoyl)-thiazol-4-yl)furan-2-yl]phosphonic acid]",95 nM
2,"COc1ccccc1C(=O)c1sc(N)nc1-c1ccc(P(=O)(O)O)o1 [Compound 1.14, [5-(2-amino-5-(2-methoxybenzoyl)thiazol-4-yl)furan-2-yl]-phosphonic acid]",118 nM
3,"Nc1nc(-c2ccc(P(=O)(O)O)o2)c(C(=O)c2ccccc2C(F)(F)F)s1 [Compound 1.27, [5-(2-amino-5-(2-trifluoromethylbenzoyl)thiazol-4-yl)-furan-2-yl]phosphonic acid]",111 nM
4,"CN(C)c1ccc(C(=O)c2sc(N)nc2-c2ccc(P(=O)(O)O)o2)cc1 [Compound 1.32, [5-(2-amino-5-(4-(N,N-dimethylamino)benzoyl)thiazol-4-yl)-furan-2-yl]phosphonic acid]",105 nM
5,"COc1ccc(C(=O)c2sc(N)nc2-c2ccc(P(=O)(O)O)o2)cc1OC [Compound 1.17, [5-(2-amino-5-(3,4-dimethoxybenzoyl)thiazol-4-yl)furan-2-yl]-phosphonic acid]",94 nM
6,"CC(=O)Nc1nc(-c2ccc(P(=O)(O)O)o2)c(C(=O)C(C)(C)C)s1 [N-acetyl-1.1, reference compound]",2310 nM
7,"Nc1nc(-c2ccc(P(=O)(O)O)o2)c(C(=O)c2ccc(C(F)(F)F)cc2)s1 [Compound 1.24, [5-(2-amino-5-(4-trifluoromethylbenzoyl)thiazol-4-yl)-furan-2-yl]phosphonic acid]",99 nM
8,"Nc1ncnc2c1ncn2[C@@H]1O[C@H](COP(=O)(O)O)[C@@H](O)[C@H]1O [AMP, reference compound]",1000 nM
9,"Nc1nc(-c2ccc(P(=O)(O)O)o2)c(C(=O)c2ccc(Cl)cc2)s1 [Compound 1.9, [5-(2-amino-5-(4-chlorobenzoyl)thiazol-4-yl)furan-2-yl]-phosphonic acid]",86 nM
10,"Nc1nc(-c2ccc(P(=O)(O)O)o2)c(C(=O)c2cccc(C(F)(F)F)c2)s1 [Compound 1.26, [5-(2-amino-5-(3-trifluoromethylbenzoyl)thiazol-4-yl)-furan-2-yl]phosphonic acid]",119 nM

# Next, values leading:
row,IC50,SMILES
1,48 nM,"Cc1ccccc1C(=O)c1sc(N)nc1-c1ccc(P(=O)(O)O)o1 [Compound 1.13, [5-(2-amino-5-(2-methylbenzoyl)thiazol-4-yl)furan-2-yl]-phosphonic acid]"
2,11 nM,"CCC(C)C(=O)c1sc(N)nc1-c1ccc(P(=O)(O)O)o1 (centres unmarked) [Compound 1.33, [5-(2-amino-5-(2-methylbutyryl)thiazol-4-yl)furan-2-yl]-phosphonic acid]"
3,16 nM,"Nc1nc(-c2ccc(P(=O)(O)O)o2)c(C(=O)C2CCC2)s1 [Compound 1.34, [5-(2-amino-5-cyclobutylcarbonylthiazol-4-yl)furan-2-yl]-phosphonic acid]"
4,14 nM,"Nc1nc(-c2ccc(P(=O)(O)O)o2)c(C(=O)C2CCCC2)s1 [Compound 1.30, [5-(2-amino-5-cyclopentylcarbonylthiazol-4-yl)furan-2-yl]-phosphonic acid]"
5,48 nM,"Cc1ccc(C(=O)c2sc(N)nc2-c2ccc(P(=O)(O)O)o2)cc1 [Compound 1.10, [5-(2-amino-5-(4-methylbenzoyl)thiazol-4-yl)furan-2-yl]-phosphonic acid]"
6,37 nM,"Nc1nc(-c2ccc(P(=O)(O)O)o2)c(C(=O)c2cccc(F)c2)s1 [Compound 1.8, [5-(2-amino-5-(3-fluorobenzoyl)thiazol-4-yl)furan-2-yl]-phosphonic acid]"
7,40 nM,"Nc1nc(-c2ccc(P(=O)(O)O)o2)c(C(=O)C2CCCCC2)s1 [Compound 1.6, [5-(2-amino-5-cyclohexylcarbonyl-thiazol-4-yl)furan-2-yl]-phosphonic acid]"
8,73 nM,"Nc1nc(-c2ccc(P(=O)(O)O)o2)c(C(=O)c2cccc(Cl)c2)s1 [Compound 1.12, [5-(2-amino-5-(3-chlorobenzoyl)thiazol-4-yl)furan-2-yl]-phosphonic acid]"
9,53 nM,"Nc1nc(-c2ccc(P(=O)(O)O)o2)c(C(=O)c2ccc3c(c2)OCO3)s1 [Compound 1.19, [5-(2-amino-5-(3,4-methylenedioxybenzoyl)thiazol-4-yl)-furan-2-yl]phosphonic acid]"
10,57 nM,"Nc1nc(-c2ccc(P(=O)(O)O)o2)c(C(=O)c2ccc(-c3ccccc3)cc2)s1 [Compound 1.28, [5-(2-amino-5-(4-phenylbenzoyl)thiazol-4-yl)furan-2-yl]-phosphonic acid]"
11,73 nM,"Nc1nc(-c2ccc(P(=O)(O)O)o2)c(C(=O)c2ccc(N3CCCCC3)cc2)s1 [Compound 1.31, [5-(2-amino-5-(4-piperidinylbenzoyl)thiazol-4-yl)furan-2-yl]-phosphonic acid]"
12,61 nM,"COc1ccc(C(=O)c2sc(N)nc2-c2ccc(P(=O)(O)O)o2)cc1 [Compound 1.16, [5-(2-amino-5-(4-methoxybenzoyl)thiazol-4-yl)furan-2-yl]-phosphonic acid]"
13,54 nM,"Nc1nc(-c2ccc(P(=O)(O)O)o2)c(C(=O)c2ccc(N3CCCC3)c(Cl)c2)s1 [Compound 1.21, [5-(2-amino-5-(3-chloro-4-(1-pyrrolidinyl)benzoyl)-thiazol-4-yl)furan-2-yl]-phosphonic acid]"
14,36 nM,"Cc1cccc(C(=O)c2sc(N)nc2-c2ccc(P(=O)(O)O)o2)c1 [Compound 1.11, [5-(2-amino-5-(3-methylbenzoyl)thiazol-4-yl)furan-2-yl]-phosphonic acid]"
15,60 nM,"Nc1nc(-c2ccc(P(=O)(O)O)o2)c(C(=O)c2ccc3ccccc3c2)s1 [Compound 1.29, [5-(2-amino-5-(2-naphthylcarbonyl)thiazol-4-yl)furan-2-yl]-phosphonic acid]"
16,41 nM,"Nc1nc(-c2ccc(P(=O)(O)O)o2)c(C(=O)c2cccs2)s1 [Compound 1.7, [5-(2-amino-5-(2-thienylcarbonyl)thiazol-4-yl)furan-2-yl]-phosphonic acid]"
17,33 nM,"Nc1nc(-c2ccc(P(=O)(O)O)o2)c(C(=O)c2ccc(F)cc2)s1 [Compound 1.22, [5-(2-amino-5-(4-fluorobenzoyl)thiazol-4-yl)furan-2-yl]-phosphonic acid]"
18,9 nM,"CCC(CC)C(=O)c1sc(N)nc1-c1ccc(P(=O)(O)O)o1 [Compound 1.23, [5-(2-amino-5-(2-ethylbutyryl)thiazol-4-yl)furan-2-yl]-phosphonic acid]"
19,85 nM,"COc1cccc(C(=O)c2sc(N)nc2-c2ccc(P(=O)(O)O)o2)c1 [Compound 1.18, [5-(2-amino-5-(3-methoxybenzoyl)thiazol-4-yl)furan-2-yl]-phosphonic acid]"

# System: Sprague-Dawley rats
# Assay: Glucose lowering following oral administration to the fasted, normal rat
# Type: in vivo
# Conditions: maximum lowering relative to saline controls, 10 mg/kg oral, 18-h fasted rats
# Procedure: Compounds were administered by oral gavage to 18-h fasted, Sprague-Dawley rats (250-300 g, n=3/4/group) at a dose of 10 mg/kg. Phosphonic acids (active moieties) were prepared in deionized water, and the solution adjusted to neutrality with sodium hydroxide. Prodrugs were dissolved in polyethylene glycol (mw 400). Blood samples were taken via tail vein nick immediately prior to dosing and at 1 h intervals thereafter. Blood glucose was analyzed by means of a HemoCue glucose analyzer (HemoCue Inc., Mission Viejo, Calif.). The table below indicates the maximum % glucose lowering achieved relative to control animals dosed with saline.
row,SMILES,inhibition in vivo at 10 mg/kg
1,CCOC(=O)C(C)(C)NP(=O)(OCC(=O)OCc1ccccc1)c1ccc(-c2nc(N)sc2C(=O)C(C)(C)C)o1 (centres unmarked) [Compound 5.5],20%
